According to patent US6806257B1, “Flavones as inducible nitric oxide synthase inhibitors, cyclooxygenase-2 inhibitors and potassium channel activators” (priority 1999, dated 2004):

Experiments:
[1] = tested on: LPS-induced NO production in RAW264.7 macrophages; test: LPS-induced nitrite (NO) production in RAW264.7 macrophages, Griess reaction; assay type: cell-based, mouse; conditions: 5, 10 or 20 μg/ml together with 100 ng/ml LPS for 24 hours
Description: (§1) Cells. RAW264.7, a mouse macrophage cell line, was obtained from American Type Culture Collection. Cells were cultured in RPMI-1640 medium (available from Gibco Life Technology, in Gaithersburg, Md.) supplemented with 2 mM L-glutamine, antibiotics (100 units/ml penicillin-A and 100 units/ml streptomycin) and 10% heat-inactivated fetal bovine serum (Gibco/BRL) and maintained at 37° C in a humidified incubator containing 5% CO2.
Nitrite assay. The nitrite concentration in the medium was measured as an indicator of NO production according to the Griess reaction (Kim et al., J. Immunol. 153: 4741-4748). One hundred microliters of each supernatant was. mixed with the same volume of Griess reagent (1% sulfanilamide in 5% phosphoric acid and 0. 1% naphthylethylenediamine dihydrochloride in water); absorbency of the mixture at 550 nm was determined with an enzyme-linked immunosorbent assay plate reader (Dynatech MR-7000; Dynatech Labs, Chantilly, Va.).
The effects of flavonoids, ellagitannins, anthraquinones on LPS-induced NO production in macrophages were studied as follows. The chemical structures of two flavonoids (myricitrin, N1; oroxylin A, N2) four ellagitannins (penta-O-galloyl-β-glucopyranose, N3; woodfordin C, N4; onothein B, N5; cuphiin, N6), and two anthraquinones (emodin, N7; physcion, N8) that were used in the present study were shown in FIG. 1. The effects of these eight compounds on NO production in RAW264.7 macrophages were investigated. The accumulated nitrite in the culture medium was used as an index for NO synthesis from these cells. […]

iNOS [2] = test: LPS-induced iNOS expression in RAW264.7 macrophages (western/northern blot); assay type: cell-based, mouse
Description: as §1
(§2) Western blots. Total cellular extract, cytosolic fractions (for IkB) and nuclear fraction (for p65 antibody) were prepared according to Muller et al., Immunobiology, 187, 233-256, 1993 and separated on sodium dodecyl sulfatepolyacrylamide minigels (8% for iNOS or COX-2, and 10% for IkB or p65) and transferred to immobilon polyvinylidene difluoride membranes (Millipore, Bedford, Mass.). The membrane was incubated overnight at 4° C. with 1% bovine serum albumin and then incubated with anti-iNos, COX-2, α-Tubulin monoclonal antibodies (Transduction Laboratories, Lexington, Ky.), anti-IkB or anti-p65 polyclonal antibodies (Santa Cruz Biochemicals, Santa Cruz, Calif.). iNOS, IkB, p65, Cox-2, α-Tubulin were detected by NBT and BCIP staining (Sigma Chemical Co., St. Louis, Mo.).
Northern blot analysis. Total RNA (20 μg/lane) were separated by electrophoresis on 1.2% agarose gel containing 6.7% formaldehyde and transformed to a Hybond-N nylon membrane (American Life Science) in 20×standard saline citrate (3 M sodium chloride and 0.3 M sodium citrate, pH 7.0). After heating at 80° C. for 2 hours and prehybridization for 4 hours, the filters were hybridized with ^32P-labeled murine iNOS cDNA probes at a concentration of 3×10^6 cpm/ml for 16-18 hours at 42° C. The probe was labeled with [α-32P] dCTP by using Random Primer labeling kit (Stratagene, La Jolla, Calif.). Then, the filters were washed, dried and autoradiographed with Kodak-X-Omat XAR-film using intensifying screens at −80° C.

NF-kB (p65) / IkB = test: Nuclear p65 / cytosolic IkB western blot in LPS-treated RAW264.7 macrophages; assay type: cell-based, mouse; conditions: 20 μg/ml, 100 ng/ml LPS for 30 minutes
Description: as §2
NF-kB is a transcription factor that is activated in response to stimulation by LPS, and activation of NF-kB is an essential factor in inducing iNOS gene expression in macrophages (Kim, Y. M., Biochem. Biophys. Res. Commun. 236, 655-660, 1997). To assess the effect of these compounds (20 μg/ml) on early stage of iNOS gene expression, the activation of NF-kB in RAW264.7 macrophages was examined using the electrophoretic mobility shift assay (EMSA) (FIGS. 6i and 6ii).

iNOS [3] = test: LPS-induced nitrite production and iNOS expression in Bcl-2-overexpressed RAW264.7 cells; assay type: cell-based, mouse; conditions: 20 μg/ml, LPS 100 ng/ml, Bcl-2/RAW-1 and Bcl-2/RAW-2 cells
[4] = tested on: porcine cerebral arteries; test: In vitro tissue bath vasorelaxation of precontracted porcine cerebral arteries; conditions: concentrations as high as 100 μM, n=4
RAW264.7 cells = conditions: mouse, 20 μg/ml

Q: How did the LPS-induced nitrite production [1] turn out when `Cc1cc(O)c2c(c1)C(=O)c1cc(O)cc(O)c1C2=O` [emodin, Emodin, reference compound] was run?
A: significant inhibition

Q: And the “blocking LPS-induced iNOS gene expression, comparison among compounds tested” value (iNOS [2])?
A: potent inhibitory effect, comparable to oroxylin A

Q: What about the “LPS-induced iNOS protein” value (iNOS [2]; 100 ng/ml LPS, western blot) of the same compound?
A: inhibited LPS-induced iNOS protein in a concentration-dependent manner

Q: What about the “LPS-induced increase of nuclear p65 and decrease of cytosolic IkB” value (NF-kB (p65) / IkB) of the same compound?
A: did not block

Q: What about the “LPS-induced iNOS gene expression” value (iNOS [3]) of the same compound?
A: inhibited

Q: What about the LPS-induced nitrite production (iNOS [3]) of the same compound?
A: inhibited

Q: And the “relaxation of cerebral arteries” value [4]?
A: very small relaxation or no response

Q: What about the “cytotoxity by MTT assay” value (RAW264.7 cells) of the same compound?
A: ~30%
